Assays:
[1] = test system: MSSA clinical isolates and ATCC strains; experiment: MIC and MBC against MSSA clinical isolates and ATCC strains; assay type: cell-based, Staphylococcus aureus; parameters: MIC: unit not given here
Method: (§1) Bioscreen-C instrument was used to detect the MIC and MBC of PNA-CPP derivatives against S. aureus MSSA strains. Different concentrations of PNA-CPP derivatives were prepared in 10 mM of sodium bicarbonate buffer pH-7.4 and added to ˜5.0 Log 10 CFUs in a Honey comb Bioscreen-C plate.
After the growth curve assays, the number of colony forming units (CFU) were counted to determine the MIC and MBC of each PNA-CPP derivative against MSSA.
Minimum inhibitory concentration (MIC) analyses were performed as described in Clinical and Laboratory Standards Institute, Methods for Dilution Antimicrobial Susceptibility Tests for Bacteria that Grow Aerobically, 7th ed.; Approved Standard M7-A7; CLSI: Wayne, Pa., USA, 2006; volume 26, No. 2. Vancomycin and Oxacillin were used as controls. MIC was determined as the lowest concentration of agent that inhibits bacterial growth detected at A420-580 nm.

MSSA = experiment: In vitro assay of emergence of resistance, MSSA, 8 days; assay type: cell-based, S. aureus; conditions: 6.25 μg (twice MBC) in one ml Mueller Hinton broth, 37° C., through Day 8
Method: To determine the development of resistance in MRSA and MSSA strains against Compound I-HCl and Compound IV-HCl, an in vitro assay was performed. Twice the amount of MBC of Compound I-HCl (6.25 μg) and Compound IV-HCl (6.25 μg) were mixed with ˜5.0 log 10 CFUs in one ml of Mueller Hinton broth and incubated for 8 days at 37° C. Eight tubes of culture were used for each drug and bacterial strains. At 24 hours of interval, culture tubes were centrifuged and spent media were replaced with fresh media in presence of Compound I-HCl and Compound IV-HCl and further incubated to observe the growth of S. aureus strains. At 24 hours interval, one set of culture tube exposed to drugs were selected and a fraction of the culture used to plate on agar plates to observe the reduction of CFU counts as compared to untreated control. The rest of the culture samples were allowed to grow without any drug for additional 24 hours to observe the growth of S. aureus strains. One set of culture tubes without drug was used as the positive control.
The assays above were also performed using MSSA strains and Compounds I and IV.

S. aureus MSSA strains = experiment: Bioscreen-C dose response growth curve of MSSA over 24 hours; assay type: cell-based, Staphylococcus aureus; conditions: HCl salts, doses from 100 μg downwards, 10 mM sodium bicarbonate buffer pH-7.4, OD 420-580 nm
Method: as §1
Compound I-V were assayed against MSSA. FIG. 12-16 show a dose response growth curve of MSSA in presence of increasing concentrations of Compound I-HCl (FIG. 12), Compound II-HCl (FIG. 13), Compound III-HCl (FIG. 14), Compound IV-HCl (FIG. 15), and Compound V-HCl (FIG. 16), determined in a Bioscreen-C spectrophotometer.

[2] = MSSA table, isolate MRSA#16 [sic]
[3] = MSSA table, isolate MRSA#25 [sic]
[4] = MSSA table, isolate MRSA#27 [sic]
[5] = MSSA table, isolate MRSA#34 [sic]
[6] = MSSA table, isolate MRSA#38 [sic]
[7] = MSSA table, isolate MRSA#57 [sic]
[8] = MSSA table, isolate MRSA#60 [sic]
[9] = MSSA table, isolate printed MRSA#49
[10] = MSSA table, isolate printed MRSA#61

Substance: Compound I: PNA-CPP conjugate: PNA cgt cat acg cgg tcc (SEQ ID NO: 51), AEEA linker, CPP BXRXRRXRRXRRXR; FIG. 1 (CGTCATACGCGGTCC; all peptide nucleic acid (PNA); cell-penetrating peptide attached via AEEA linker, further chemistry not fully specified)
- MBC [1, 2]: 1.56/1.56 ∞g
- MIC [1, 2]: 1.56/1.56 ∞g
- MBC [1, 3]: 3.25 ∞g
- MIC [1, 3]: 1.56 ∞g
- MBC [1, 4]: 1.56 ∞g
- MIC [1, 4]: 0.78 ∞g
- MBC [1, 5]: 3.25/3.25 ∞g
- MIC [1, 5]: 3.25/3.25 ∞g
- MBC [1, 6]: 1.56/1.56 ∞g
- MIC [1, 6]: 1.56/1.56 ∞g
- MBC ([1]; MSSA table, isolate MRSA#55): 3.25 ∞g
- MIC ([1]; MSSA table, isolate MRSA#55): 1.56 ∞g
- MBC [1, 7]: 3.25 ∞g
- MIC [1, 7]: 1.56 ∞g
- MBC [1, 8]: 1.56 ∞g
- MIC [1, 8]: 0.78 ∞g
- MBC [1, 9]: 3.25 ∞g
- MIC [1, 9]: 1.56 ∞g
- MBC [1, 10]: 3.25/3.25 ∞g
- MIC [1, 10]: 3.25/3.25 ∞g
- MBC ([1]; strain BAA 1721): 3.25 ∞g
- MIC ([1]; strain BAA 1721): 1.56 ∞g
- MSSA CFU counts and emergence of resistant strains (MSSA): reduced MSSA CFUs without emergence of resistant strains
- lowest dose at which no MSSA growth was observed (growth curve) (S. aureus MSSA strains): 3.13 µg
